The source of these data is ChEMBL document CHEMBL4024732, “Discovery of a novel and potent class of anti-HIV-1 maturation inhibitors with improved virology profile against gag polymorphisms” (Bioorg Med Chem Lett, 2017).

pIC50: −log10 of the molar value. Active and inactive are the calls of the source. The calls are words filed in the database; no cut-off is given here.

Series [1] deals with Human immunodeficiency virus 1. As to the kind of experiment: Antiviral activity against HIV1 isolate 91BR014 infected in human PBMC. The class given is functional. To be noted: Human immunodeficiency virus 1, isolate 91BR014.
The subject of series [2] is Human immunodeficiency virus 1. As to the kind of experiment: Antiviral activity against HIV1 isolate 01ET188 infected in human PBMC. The class given is functional. To be noted: Human immunodeficiency virus 1, isolate 01ET188.
Series [3] concerns Human immunodeficiency virus 1. As to the kind of experiment: Ratio of compound effect in presence of 40% human serum to compound effect in absence of serum for antiviral activity against HIV1 by cell based assay. The class given is functional.
Series [4] can be described thus: Inhibition of bevirimat-resistant HIV-1 clade B isolate CC1/85 CA-SP1 V370A mutant infected in human PBMC measured after 7 days by scintillation counting method. To be noted: Human immunodeficiency virus 1, clade B isolate CC1/85, 168 h.
Series [5] can be described thus: Inhibition of bevirimat-resistant HIV1 clade B NL4-3 CA-SP1 Q369H mutant infected in human MT4 cells. The class given is cell-based. Particulars: Human immunodeficiency virus 1, clade B NL4-3, MT4.
The nature of series [6]: Inhibition of wild type HIV-1 clade B NL4-3 Gag polyprotein SP1 infected in human MT4 cells. The class given is cell-based. Particulars: Human immunodeficiency virus 1, clade B NL4-3, MT4.
For series [7], the system named is Human immunodeficiency virus 1. As to the kind of experiment: Inhibition of HIV1 Gag CA-SP1 cleavage infected in human PBMC at 0.0001 to 10 uM measured after 8 days post infection by Western blot analysis. On the technique in general: In western blotting, separated proteins are transferred to a membrane and probed.
Series [8] can be described thus: Inhibition of bevirimat-resistant HIV-1 clade A isolate I-2496 V370A mutant infected in human PBMC after 7 days by scintillation counting method. To be noted: Human immunodeficiency virus 1, clade A isolate I-2496, 168 h.
Series [9] deals with Human immunodeficiency virus 1. Put plainly: Antiviral activity against HIV1 isolate 96USNG031 infected in human PBMC. Particulars: Human immunodeficiency virus 1, isolate 96USNG031. The class given is functional.
Series [10] has as its system Human immunodeficiency virus 1. Put plainly: Antiviral activity against HIV1 isolate 96THNP1538 infected in human PBMC. The class given is functional. Particulars: Human immunodeficiency virus 1, isolate 96THNP1538.
For series [11], the system named is Human immunodeficiency virus 1. Put plainly: Antiviral activity against HIV1 isolate 00KEKR1008 infected in human PBMC. The class given is functional. To be noted: Human immunodeficiency virus 1, isolate 00KEKR1008.
A short description of series [12]: Inhibition of bevirimat-resistant HIV1 clade B NL4-3 CA-SP1 V370A mutant infected in human MT4 cells. The class given is cell-based. To be noted: Human immunodeficiency virus 1, clade B NL4-3, MT4.
The nature of series [13]: Inhibition of bevirimat-resistant HIV1 clade B NL4-3 CA-SP1 T371A mutant infected in human MT4 cells. Particulars: Human immunodeficiency virus 1, clade B NL4-3, MT4. The class given is cell-based.
Series [14] is described as follows: Cytotoxicity against human MT4 cells. The class given is cell-based.
Series [15] is described as follows: Inhibition of bevirimat-resistant HIV-1 clade B isolate ASJM108 Gag V370A mutant infected in human PBMC after 7 days by scintillation counting method. To be noted: Human immunodeficiency virus 1, clade B isolate ASJM108, 168 h.

With `CC(C)C1=C2[C@H]3CC[C@@H]4[C@@]5(C)CC[C@H](OC(=O)CC(C)(C)C(=O)O)C(C)(C)[C@@H]5CC[C@@]4(C)[C@]3(C)CC[C@@]2(C(=O)C(=O)NC2(c3ccc(Cl)cc3)CC2)CC1=O`, the pIC50 was < 7.22 in series [1]; < 7.22 in series [2]; 8.30 in series [4]; 7.64 in [5]; 7.77 in series [6]; 7.85 in series [8]. Moreover, the negative logarithm of the IC50 (pIC50) in [9] is < 7.22; in [10], < 7.22; in series [11] it was < 7.22; in series [12], 7.60; in series [13], 8.10; in [15], 7.29. In series [3], the Ratio is 9.7. For the same compound, the inhibition entry in series [7] was “Active”. Also, the CC50 in [14] was > 10000 nM.

In general, pIC50 refers to the IC50 on a negative log10 scale, so that one unit is a factor of ten. As usually defined, the CC50 is the concentration that lowers cell viability or growth by half.
